Test results as given in patent US10017527B2, “KLK4 inhibitors” (Universiteit Antwerpen, priority 2014, dated 2018).

Legend:
Type in all cases: biochemical
[1] = target: T1, PlasmaKLK (human plasma) (Homo sapiens, UniProt P03952); experiment: Plasma kallikrein inhibition, chromogenic substrate Biophen CS-31(02); conditions: Plasma KLK; Tris buffer pH 7.8; read-out: IC50 pKLK
T1 construct: purchased Sigma-Aldrich; host or cells: human plasma
Description: (§1) The IC50 values For KLK1, KLK2 and KLK8 were obtained in a similar way. For plasmin, tPA, thrombin, Fxa, HNE, Plasma kallikrein Chromogenic substrates were used (absorption: 405 nm). (KLK2, KLK4, KLK8 were supplied by Viktor Magdolen TUMunich (TUM)).

[2] = target: T2, KLK4 (Homo sapiens, UniProt Q9Y5K2); experiment: KLK4 inactivation kinetics from progress curves (kobs vs inhibitor concentration); conditions: for kapp KLK4: apparent second-order rate constant, substrate 250 μM; for Irreversible (KLK4): irreversible binding to KLK4, Yes/No
T2 construct: purchased Viktor Magdolen (TUM), supplied by an academic laboratory
In short: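 Enzyme was added at time zero to inhibitor plus substrate (250 μM final), and aminomethylcoumarine absorbance was followed under pseudo-first-order conditions ([I]0>>[E]0) with under 10% substrate conversion. Progress curves were fitted to the integrated rate equation to give kobs. kapp is the slope of kobs versus [I]0 and depends on substrate concentration.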

[3] = target: T3, KLK1 (human) (Homo sapiens, UniProt P06870); experiment: KLK1 inhibition, fluorogenic substrate H-Pro-Phe-Arg-AMC; conditions: Tris buffer pH 7.8; read-out: IC50 KLK1
T3 construct: purchased Prospec
In short: (§2)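 Chromogenic tPA and neutrophil elastase assays were monitored at 405 nm absorption. KLK1 and KLK2 IC50s came from a common method.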

[4] = target: AcHE (Homo sapiens, UniProt P22303); experiment: AcHE inhibition; conditions: read-out: IC50 AcHE
[5] = target: T4, tPA (recombinant) (Homo sapiens, UniProt P00750); experiment: tPA inhibition, chromogenic substrate Biophen CS-05(88); conditions: Tris buffer pH 8.3; read-out: IC50 tPA
T4 construct: purchased Nodia
In short: as §2

[6] = target: T5, KLK2 (human) (Homo sapiens, UniProt P20151); experiment: KLK2 inhibition, fluorogenic substrate H-Pro-Phe-Arg-AMC; conditions: Tris buffer pH 8.3; read-out: IC50 KLK2
T5 construct: purchased Viktor Magdolen, TUMunich (TUM), supplied by an academic laboratory
In short: as §2

[7] = target: T6, FXa (Homo sapiens, UniProt P00742); experiment: FXa inhibition, chromogenic substrate Biophen CS-11(32); conditions: Tris buffer pH 8.3; read-out: IC50 FXa
T6 construct: purchased Nodia
Description: as §1

[8] = target: T7, KLK8 (human) (Homo sapiens, UniProt O60259); experiment: KLK8 inhibition, fluorogenic substrate Boc-Val-Pro-Arg-AMC; conditions: Tris buffer pH 8; read-out: IC50 KLK8
T7 construct: purchased Viktor Magdolen, TUMunich (TUM), supplied by an academic laboratory
T7 sequence (O60259 33-260): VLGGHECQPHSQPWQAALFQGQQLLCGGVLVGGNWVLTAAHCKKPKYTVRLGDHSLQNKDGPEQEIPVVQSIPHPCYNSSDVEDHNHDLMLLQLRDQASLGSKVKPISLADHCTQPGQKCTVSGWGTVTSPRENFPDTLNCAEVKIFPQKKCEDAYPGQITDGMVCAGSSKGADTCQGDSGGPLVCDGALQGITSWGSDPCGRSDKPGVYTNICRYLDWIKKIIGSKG
Description: as §1

[9] = target: T2, KLK4; experiment: KLK4 enzymatic inhibition, fluorogenic substrate Boc-Val-Pro-Arg-AMC; conditions: 15 min pre-incubation at 37° C., Tris buffer pH 8.3; read-out: IC50 KLK4
[10] = target: T8, Thrombine (human plasma) (Homo sapiens, UniProt P00734); experiment: Thrombin inhibition, chromogenic substrate Biophen CS-21(66); conditions: Thrombin; Tris buffer pH 8.3; read-out: IC50 THR
T8 construct: purchased Sigma-Aldrich; host or cells: human plasma

[11] = target: T9, uPA (recombinant) (Homo sapiens, UniProt P00749); experiment: uPA inhibition, chromogenic substrate Biophen CS-61(44); conditions: Tris buffer pH 8.8; read-out: IC50 uPA
T9 construct: purchased Nodia

[12] = target: T10, Plasmine (human plasma) (Homo sapiens, UniProt P00747); experiment: Plasmin inhibition, chromogenic substrate Biophen CS-21(66); conditions: Plasmin; Tris buffer pH 7.4; read-out: IC50 PLM
T10 construct: purchased Sigma-Aldrich; host or cells: human plasma
Description: as §1

[13] = target: T11, Neurtophil Elastase(human) (Homo sapiens, UniProt P08246); experiment: Neutrophil elastase inhibition, chromogenic substrate MeOSuc-Ala-Ala-Pro-Val-pNA; conditions: Tris buffer pH 7.8; read-out: IC50 HNE
T11 construct: purchased Enzo-life sciences
T11 sequence (P08246 30-267): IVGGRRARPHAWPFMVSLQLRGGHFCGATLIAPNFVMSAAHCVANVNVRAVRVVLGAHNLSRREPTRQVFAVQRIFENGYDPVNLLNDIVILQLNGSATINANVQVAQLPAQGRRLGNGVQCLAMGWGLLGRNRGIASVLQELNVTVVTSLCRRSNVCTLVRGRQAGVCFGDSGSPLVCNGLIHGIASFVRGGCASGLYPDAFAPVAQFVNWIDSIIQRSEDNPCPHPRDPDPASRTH
Description: as §1

T2 sequence (Q9Y5K2 31-254): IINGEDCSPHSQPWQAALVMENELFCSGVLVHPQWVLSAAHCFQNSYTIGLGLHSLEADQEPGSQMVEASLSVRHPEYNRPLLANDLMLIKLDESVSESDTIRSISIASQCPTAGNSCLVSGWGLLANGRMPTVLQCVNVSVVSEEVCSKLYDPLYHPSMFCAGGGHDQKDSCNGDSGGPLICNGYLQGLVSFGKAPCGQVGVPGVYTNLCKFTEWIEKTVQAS
T1 sequence (P03952 391-638 limits assumed): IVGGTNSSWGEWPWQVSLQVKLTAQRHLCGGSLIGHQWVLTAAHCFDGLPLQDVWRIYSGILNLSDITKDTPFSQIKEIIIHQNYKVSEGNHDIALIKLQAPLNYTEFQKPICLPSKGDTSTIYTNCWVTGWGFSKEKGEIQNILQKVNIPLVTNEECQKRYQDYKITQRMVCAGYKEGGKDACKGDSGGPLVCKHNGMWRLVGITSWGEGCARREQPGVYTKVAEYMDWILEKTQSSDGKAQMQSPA
T1 sequence (P03952 20-390 partner limits assumed): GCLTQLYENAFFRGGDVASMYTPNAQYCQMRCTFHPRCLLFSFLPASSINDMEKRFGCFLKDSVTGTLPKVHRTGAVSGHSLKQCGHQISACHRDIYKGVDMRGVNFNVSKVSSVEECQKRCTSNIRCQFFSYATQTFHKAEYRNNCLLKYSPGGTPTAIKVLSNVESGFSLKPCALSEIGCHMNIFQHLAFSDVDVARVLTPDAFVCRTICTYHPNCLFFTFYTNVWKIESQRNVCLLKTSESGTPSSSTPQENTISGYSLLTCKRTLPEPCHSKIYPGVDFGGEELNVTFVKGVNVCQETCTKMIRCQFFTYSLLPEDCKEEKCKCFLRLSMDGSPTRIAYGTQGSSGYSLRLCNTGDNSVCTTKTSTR
T5 sequence (P20151 25-261): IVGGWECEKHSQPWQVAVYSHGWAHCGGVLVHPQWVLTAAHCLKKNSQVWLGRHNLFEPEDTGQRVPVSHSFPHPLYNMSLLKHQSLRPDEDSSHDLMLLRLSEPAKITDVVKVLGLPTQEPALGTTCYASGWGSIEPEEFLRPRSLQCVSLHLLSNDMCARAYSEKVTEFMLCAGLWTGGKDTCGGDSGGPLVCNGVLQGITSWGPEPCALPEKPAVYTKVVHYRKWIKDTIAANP
T6 sequence (P00742 235-488 limits assumed): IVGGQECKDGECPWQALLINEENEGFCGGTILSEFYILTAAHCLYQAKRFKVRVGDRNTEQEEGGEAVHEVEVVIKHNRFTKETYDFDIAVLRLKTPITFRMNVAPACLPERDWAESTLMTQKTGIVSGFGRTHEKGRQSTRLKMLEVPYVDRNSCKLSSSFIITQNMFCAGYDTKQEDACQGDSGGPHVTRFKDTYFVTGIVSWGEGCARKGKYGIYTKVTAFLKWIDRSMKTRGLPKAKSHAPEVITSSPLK
T6 sequence (P00742 41-179 partner limits assumed): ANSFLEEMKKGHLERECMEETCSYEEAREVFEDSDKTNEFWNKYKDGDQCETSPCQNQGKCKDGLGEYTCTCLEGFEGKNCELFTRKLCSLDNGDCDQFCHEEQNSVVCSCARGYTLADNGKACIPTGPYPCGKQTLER
T3 sequence (P06870 25-262): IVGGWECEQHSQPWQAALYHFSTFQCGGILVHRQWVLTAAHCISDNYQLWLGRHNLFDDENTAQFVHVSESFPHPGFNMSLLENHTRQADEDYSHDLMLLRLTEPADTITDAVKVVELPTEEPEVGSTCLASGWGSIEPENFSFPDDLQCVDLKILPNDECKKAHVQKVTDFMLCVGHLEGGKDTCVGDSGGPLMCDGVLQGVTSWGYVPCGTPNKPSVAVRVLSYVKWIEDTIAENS
Sequence of AcHE (P22303 32-614): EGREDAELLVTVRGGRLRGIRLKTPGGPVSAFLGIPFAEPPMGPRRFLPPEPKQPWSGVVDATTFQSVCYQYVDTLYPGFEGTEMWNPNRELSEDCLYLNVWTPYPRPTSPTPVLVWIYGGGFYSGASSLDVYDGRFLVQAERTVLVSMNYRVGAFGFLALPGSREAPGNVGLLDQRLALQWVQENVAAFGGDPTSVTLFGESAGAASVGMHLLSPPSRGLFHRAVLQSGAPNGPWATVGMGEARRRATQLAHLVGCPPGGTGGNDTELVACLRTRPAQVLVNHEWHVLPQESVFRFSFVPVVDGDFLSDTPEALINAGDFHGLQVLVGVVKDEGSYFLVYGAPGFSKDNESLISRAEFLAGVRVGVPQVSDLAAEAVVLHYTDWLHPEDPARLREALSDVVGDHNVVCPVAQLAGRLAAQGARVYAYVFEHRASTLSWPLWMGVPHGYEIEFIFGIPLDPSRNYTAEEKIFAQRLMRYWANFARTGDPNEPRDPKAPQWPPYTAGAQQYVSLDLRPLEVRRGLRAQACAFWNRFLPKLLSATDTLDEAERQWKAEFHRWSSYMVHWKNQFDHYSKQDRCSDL
T10 sequence (P00747 581-810 limits assumed): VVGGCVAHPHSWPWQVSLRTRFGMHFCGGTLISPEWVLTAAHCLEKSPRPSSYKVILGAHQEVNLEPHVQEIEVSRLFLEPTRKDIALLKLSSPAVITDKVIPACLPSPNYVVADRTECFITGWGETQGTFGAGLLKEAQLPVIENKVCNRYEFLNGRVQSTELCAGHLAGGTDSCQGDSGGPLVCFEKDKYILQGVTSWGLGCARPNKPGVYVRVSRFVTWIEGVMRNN
T10 sequence (P00747 98-580 partner limits assumed): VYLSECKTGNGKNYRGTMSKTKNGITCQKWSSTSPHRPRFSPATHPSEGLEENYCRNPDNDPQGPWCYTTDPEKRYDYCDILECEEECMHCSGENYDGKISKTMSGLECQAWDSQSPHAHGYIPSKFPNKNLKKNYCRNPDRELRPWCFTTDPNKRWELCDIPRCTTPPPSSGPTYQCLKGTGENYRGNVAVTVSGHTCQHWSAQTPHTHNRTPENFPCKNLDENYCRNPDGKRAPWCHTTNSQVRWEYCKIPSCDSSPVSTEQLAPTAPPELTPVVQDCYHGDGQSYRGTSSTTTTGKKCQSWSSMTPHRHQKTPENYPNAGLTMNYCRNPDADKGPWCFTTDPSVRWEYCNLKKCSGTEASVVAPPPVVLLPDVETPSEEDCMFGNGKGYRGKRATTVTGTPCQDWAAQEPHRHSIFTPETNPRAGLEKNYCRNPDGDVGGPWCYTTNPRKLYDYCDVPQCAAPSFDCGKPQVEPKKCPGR
T4 sequence (P00750 36-562, species assumed): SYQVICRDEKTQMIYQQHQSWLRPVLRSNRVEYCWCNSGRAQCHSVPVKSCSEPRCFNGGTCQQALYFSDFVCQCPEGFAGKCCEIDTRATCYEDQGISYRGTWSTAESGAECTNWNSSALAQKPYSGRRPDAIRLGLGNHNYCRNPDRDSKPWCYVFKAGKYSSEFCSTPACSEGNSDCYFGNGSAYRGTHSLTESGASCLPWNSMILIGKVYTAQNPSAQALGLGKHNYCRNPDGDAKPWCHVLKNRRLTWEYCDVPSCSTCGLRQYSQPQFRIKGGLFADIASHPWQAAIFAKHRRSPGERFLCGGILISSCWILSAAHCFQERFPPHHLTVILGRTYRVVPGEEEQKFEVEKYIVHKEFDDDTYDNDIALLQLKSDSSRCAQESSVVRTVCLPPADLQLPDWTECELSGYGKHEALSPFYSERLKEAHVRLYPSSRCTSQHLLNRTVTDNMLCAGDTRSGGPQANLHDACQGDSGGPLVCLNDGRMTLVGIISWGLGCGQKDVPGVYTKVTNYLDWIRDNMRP

SMILES	IC50 [1]	kapp KLK4 [2]	Irreversible (KLK4) [2]	IC50 [3]	IC50 [4]	IC50 [5]	IC50 [6]	IC50 [7]	IC50 [8]	IC50 [9]	IC50 [10]	IC50 [11]	IC50 [12]	IC50 [13]
COCCOCCOC(=O)NC(c1ccc(NC(=N)N)cc1)P(=O)(Oc1ccccc1)Oc1ccccc1.O=C(O)C(F)(F)F (stereo not shown) [Compound 28, 2-(2-methoxyethoxy)ethyl((diphenoxyphosphoryl)(4-guanidinophenyl)methyl) carbamate 2,2,2-trifluoroacetate]	10 to 250 µM	34000 M⁻¹ s⁻¹	Yes/	10 to 250 µM	10 to 250 µM	> 250 µM	0.1 to 1 µM	> 250 µM	10 to 250 µM	< 0.1 µM	> 250 µM	10 to 250 µM	10 to 250 µM	> 250 µM
N=C(N)Nc1ccc(C(NC(=O)OCCOc2ccccc2)P(=O)(Oc2ccccc2)Oc2ccccc2)cc1.O=C(O)C(F)(F)F (stereo not shown) [Compound 30, 2-phenoxyethyl((diphenoxyphosphoryl)(4-guanidinophenyl)methyl)carbamate 2,2,2-trifluoroacetate]	> 250 µM	15000 M⁻¹ s⁻¹	Yes/	2.5 to 10 µM	10 to 250 µM	> 250 µM	0.1 to 1 µM	10 to 250 µM	10 to 250 µM	< 0.1 µM	> 250 µM	2.5 to 10 µM	10 to 250 µM	> 250 µM
